From patent publication US20160250127A1, “USE OF A POLYOL IN THE REMINERALISATION OF ENAMEL” (ROQUETTE FRERES, priority 2013, published 2016)

System: early carious lesions (enamel lesions of anterior maxillary teeth)
Assay: QLF analysis of enamel lesion remineralization, 6-month clinical study of sugar-free chewing gums
Type: in vivo, human
Settings: for stopping and reversing the oral white lesions, compared with the two control groups: 6-month study; for ΔF compared with gumbase group and control group without gum: after 3 months, P<0.01; for ΔF compared with the two control groups (gumbase and no gum) / ΔQ compared with the two control groups (gumbase and no gum): after 6 months, p<0.01
Source text: The QLF™ (Quantitative Light-induced Fluorescence) method is a dental diagnostic tool for the quantitative evaluation, in vivo and in vitro, of dental carious lesions. The apparatus is equipped with a camera and is connected to a computer (using a program specific to QLF™). The probe, which emits a blue light (xenon lamp+filter), is passed over the tooth tested, which retransmits this light in the form of fluorescence. […] This photograph or instantaneous image is then processed using the software of the QLF™ which then recreates a reconstituted image representing the carious lesion. With this method, the real-time fluorescent images are entered into the computer and stored in an image database. Quantitative analysis of the images allows the user to quantify parameters such as loss of minerals, lesion depth, lesion size, size of the spots present on the teeth and seriousness of the various lesions with great precision and repeatability. The QLF™ method is based on the autofluorescence of the teeth. When the teeth are illuminated by the high-intensity blue light, they will begin to emit light in the green part of the spectrum. The intensity of the fluorescence of the dental material is directly related to the mineral content of the enamel. Since the QLF™ method uses fluorescence to reveal the dental carie, the contrast between the demineralized enamel and the healthy enamel is increased. Thus, the absence of specular reflection in the images obtained by the QLF™ method facilitates the calculation of the size and seriousness of the lesion by the digital image processing system. Evaluation of the efficacy against caries of a sugar-free chewing gum containing maltitol sold by the applicant under the brand SweetPearl™ using a study model consisting of various appropriate control groups (gum and maltitol, gum and xylitol, gum without polyol and no chewing gum) and the QLF™ method. Children from 8 to 13 years old, in good health, were included in the study. Their parents were informed about the study by the teachers of the school and signed an informed consent form. […] In total, 420 pupils completed a six-month study. This study is a double-blind (subjects, caregivers and examiners), multicenter, parallel, random clinical study carried out in schools. The evaluation of the dental plaque uses the Silness method and the Loe index. The digital images were taken using a digital photographic apparatus, and those of the QLF™ method were taken using the QLF™ apparatus separately. Before this examination, all the dental plaque was removed from the surface of the teeth. All the procedures were supervised by qualified personnel (dentists/hygienists). The QLF™ method was used to monitor the evolution of demineralization and remineralization of the enamel lesions. During the visit, fluorescent images were taken of the six (or fewer) anterior maxillary teeth. An image of each tooth was taken at each visit in order to ensure that all the anterior teeth were photographed. All the images taken using the QLF™ apparatus were analyzed by an experienced individual in order to determine the “mineral condition” of each tooth, using proprietory software (QLF 2.00, Inspektor, The Netherlands). The QLF™ method makes it possible to control three distinct parameters: ΔF, the area of the lesion and ΔQ. ΔF is the percentage loss of fluorescence between the comparison of a healthy enamel and an identified lesion. The detection threshold for ΔF is 5%, which means that a loss of fluorescence below this threshold is considered to be background noise and therefore not significant. The area of the lesion is calculated by means of the pixels taken into account by the analysis software as representing the demineralized enamel (i.e. those with a loss of fluorescence of at least 5%). ΔQ is the product of ΔF multiplied by the area of the lesion and represents the volume of this lesion. […]

[1] = 3 Months, 2 chewing gums (up to 60% polyol) 5 times per day
[2] = 6 Months, 2 chewing gums (up to 60% polyol) 5 times per day
[3] = Baseline, children 8-13 years, mean ± spread

Row | SMILES | QLF parameter Area (area of the lesion) [1] | QLF parameter ΔF (percentage loss of fluorescence) [1] | QLF parameter ΔQ (ΔF multiplied by area of the lesion) [1] | stopping and reversing the oral white lesions, compared with the two control groups | QLF parameter Area (area of the lesion) [2] | QLF parameter ΔF (percentage loss of fluorescence) [2] | QLF parameter ΔQ (ΔF multiplied by area of the lesion) [2] | QLF parameter ΔF (percentage loss of fluorescence) (Baseline, children 8-13 years) | QLF parameter ΔQ (ΔF multiplied by area of the lesion) (Baseline, children 8-13 years) | QLF parameter Area (area of the lesion) [3] | ΔF compared with gumbase group and control group without gum | ΔF compared with the two control groups (gumbase and no gum) | ΔQ compared with the two control groups (gumbase and no gum)
1 | OC[C@@H](O)[C@@H](O[C@H]1O[C@H](CO)[C@@H](O)[C@H](O)[C@H]1O)[C@H](O)[C@@H](O)CO [Maltitol, maltitol] | 2.33 ± 1.90 | −8.78 ± 1.78 | −20.62 ± 18.97 | significantly more effective | 2.18 ± 1.63 | −8.42 ± 1.87 | −16.69 ± 15.15 | −9.38 ± 1.79 | −24.87 ± 23.06 | 2.47 ± 1.95 | significantly different | considerable differences | considerable differences
2 | OC[C@@H](O)[C@H](O)[C@@H](O)CO [Xylitol, xylitol] | 2.43 ± 1.72 | −8.56 ± 2.02 | −22.10 ± 18.85 | significantly more effective | 2.31 ± 1.85 | −8.37 ± 1.78 | −18.19 ± 21.29 | −9.36 ± 1.92 | −25.95 ± 24.66 | 2.58 ± 1.91 | significantly different | considerable differences | considerable differences
